Laboratory results taken from PMC13286573, “Exploration of precision coregulator TR-FRET identifies diverse signatures for LXR ligands relevant to discovery of nonlipogenic ABCA1 inducers” (eLife, 2026).
“Also recorded” adds a separate entry of the source. Read-outs that look alike come from different tables or passages of the source.

Key:
HepG2 cells = experiment: Cell viability in HepG2 cells under SRE-luc conditions; assay type: cell-based, human; details: conditions of SRE-luc measurements
Text: Figure 5. Lipogenic response of HepG2 cells to treatment with liver X receptor (LXR) ligands. […] See Figure 3—figure supplement 1 for biological replicates. […] See Figure 5—figure supplement 1 for full concentration-response curves. Figure 5—figure supplement 1. Response of HepG2 cells to treatment with liver X receptor (LXR) ligands. (A–B) Lipogenic response of HepG2 cells to treatment with liver X receptor (LXR) ligands showing full concentration-response curves for biphenyl compounds shown in Figure 5E–F. (C) Cell viability in HepG2 cells under identical conditions to those used to obtain sterol response element (SRE)-luc data. [drawing 5]

LXRβ [1] = molecular target: T1, LXRβ (Homo sapiens, UniProt P55055); experiment: SRC-1 coactivator recruitment to LXRβ, coregulator TR-FRET (CRT); assay type: biochemical; parameters: The CRT selectivity assay incorporates GST-tagged LXR-LBD; purchased Thermo Fisher Scientific PV4660
T1 sequence (P55055 222-460 limits assumed): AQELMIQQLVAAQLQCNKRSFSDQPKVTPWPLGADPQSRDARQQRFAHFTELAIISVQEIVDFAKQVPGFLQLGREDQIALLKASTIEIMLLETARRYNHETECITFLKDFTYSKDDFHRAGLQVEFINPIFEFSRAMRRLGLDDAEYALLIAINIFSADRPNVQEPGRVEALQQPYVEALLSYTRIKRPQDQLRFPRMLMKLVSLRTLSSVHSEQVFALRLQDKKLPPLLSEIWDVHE

LXRα [2] = molecular target: T2, LXRα (Homo sapiens, UniProt Q13133); experiment: NCOR2 corepressor binding to LXRα, CRT; assay type: biochemical; parameters: The CRT selectivity assay incorporates GST-tagged LXR-LBD; purchased Thermo Fisher Scientific PV4657; details: read-out: NCOR2α, relative % activity at 1 μM
T2 sequence (Q13133 209-447 limits assumed): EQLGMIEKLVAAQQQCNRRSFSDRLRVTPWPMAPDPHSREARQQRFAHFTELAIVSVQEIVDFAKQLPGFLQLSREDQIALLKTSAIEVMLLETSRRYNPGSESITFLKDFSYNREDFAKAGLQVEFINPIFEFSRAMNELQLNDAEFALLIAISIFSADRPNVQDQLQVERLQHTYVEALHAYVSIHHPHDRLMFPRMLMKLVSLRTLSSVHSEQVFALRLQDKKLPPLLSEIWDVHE

ABCA1 = experiment: ABCA1-luc reporter assay in CCF-STTG1 astrocytoma cells; assay type: cell-based, human; details: normalized to T0
Text: Astrocytoma CCF-STTG1 cells, stably transfected with an ABCA1-promoter linked to a luciferase response element, provide a model for ABCA1 induction in astrocytes ([Ben Aissa et al., 2021]). […] Apparent inverse agonist activity in cell-based assays can result from ‘true’ inverse agonist recruitment of corepressors or from antagonist activity towards endogenous sterol LXR agonists. Although we use serum-stripped media, antagonism of endogenous LXR agonists cannot be ruled out.
Low passage CCF-STTG1 cells (20,000 cells/well) were seeded in 96-well plates in media containing charcoal-stripped FBS and incubated at 37 °C and 5% CO2 for 24 hr prior to a 24 hr treatment. All compounds were dissolved in DMSO, and final DMSO concentrations never exceeded 1%. After a 24 hr incubation period, add a volume of ONE-GLOEX Reagent that is equal to the volume of culture medium in each well and incubate for 3–5 min on the shaker. The luminescent activity of compounds ([…], 10-fold dilution) was examined using the ONE-GLOEX assay (Promega). […] The assays were performed in duplicates for each concentration, and the EC50 values were determined from non-linear regression analysis of the dose-response curve generated in GraphPad Prism 9.

LXRβ [3] = molecular target: T1, LXRβ; experiment: SMRT2 corepressor binding to LXRβ, CRT; assay type: biochemical; parameters: The CRT selectivity assay incorporates GST-tagged LXR-LBD; purchased Thermo Fisher Scientific PV4660; details: for activity at 1 µM: read-out: SMRT2β, relative % activity at 1 μM
SREBF1, FAS, and SCD1 = experiment: RT-PCR of lipogenic genes SREBF1, FAS, SCD1 in HepG2 cells; assay type: cell-based, human; details: HepG2, same conditions as SRE-luc
Description: Three of the biphenyl sulfones, XL041, XL652, and SR9238, gave anomalous activation data at concentrations above 1 µM, associated with interference with the nanoluciferase reporter (Figure 5—figure supplement 1). Owing to the anomalous response in the reporter assay, we measured lipogenic genes, SREBF1, FAS, and SCD1 by RT-PCR in HepG2 cells in response to treatment with the biphenyl sulfones (Figure 5G–I).
HepG2 cells were seeded in 12-well plates and treated with compounds for 24 hr. Following treatment, cells were washed once with PBS and then lysed in 350 μL of RLT buffer (Qiagen). Lysates were immediately frozen at −80 °C until RNA extraction. Total RNA was extracted using RNeasy Plus Mini columns (Qiagen) according to the manufacturer’s instructions. RNA concentration and purity were assessed using the A260/A280 ratio measured on a Synergy Neo2 plate reader (BioTek). […] Quantitative PCR was performed using TaqMan Gene Expression Master Mix (Invitrogen) with 2 μL of cDNA and gene-specific TaqMan probes in a 20 μL reaction volume per well. The following TaqMan assays were used: ABCA1: Hs01059101_m1, SREBF1: Hs01088691_m1, SCD: Hs01682761_m1, FASN: Hs01005622_m1, and HPRT1 (endogenous control): Hs02800695_m1. qPCR was performed on a StepOne Real-Time PCR System (Applied Biosystems), and gene expression was quantified using the ΔΔCt method.

LXR = experiment: Corepressor (NCOR2, SMRT2) binding to LXR, CRT, statements across isoforms; assay type: biochemical; details: monoplex CRT, absence of coactivator
LXRα [4] = molecular target: T2, LXRα; experiment: SMRT2 corepressor binding to LXRα, CRT; assay type: biochemical; parameters: The CRT selectivity assay incorporates GST-tagged LXR-LBD; purchased Thermo Fisher Scientific PV4657; details: read-out: SMRT2α, relative % activity at 1 μM
LXRα [5] = molecular target: T2, LXRα; experiment: SRC-1 coactivator recruitment to LXRα, coregulator TR-FRET (CRT); assay type: biochemical; parameters: The CRT selectivity assay incorporates GST-tagged LXR-LBD; purchased Thermo Fisher Scientific PV4657; details: in the presence of 24HC (3 µM)
[6] = ligand 1 µM, interpolated from concentration-response, normalized, heat map Figure 9A

Row | Antagonism of 24HC agonism at LXRβ (SRC-1 CRT) (LXRβ [1]) | activity at 1 µM (LXRα [2]; [6]) | Effect on SMRT2 binding to LXRβ (LXRβ [3]) | activity at 1 µM (LXRα [4]; [6]) | SMILES | HepG2 cell viability/cytotoxicity (HepG2 cells) | ABCA1 induction response/phenotype in CCF cells (ABCA1) | activity at 1 µM (LXRβ [3]) | Lipogenic gene transcription (SREBF1, FAS, SCD1) by RT-PCR (SREBF1, FAS, and SCD1) | Corepressor (NCOR2, SMRT2) displacement or stabilization, across LXR isoforms (LXR) | Antagonism of 24HC agonism at LXRα (SRC-1 CRT) (LXRα [5]) | Antagonism of 24HC agonism at LXRβ (SRC-1 CRT) (LXRβ [1]; in the presence of 24HC (3 µM)) | activity at 1 µM (LXRα [2]) | activity at 1 µM (LXRα [4])
1 | antagonized the agonism of 24HC at LXRβ | 97.7% | selectively displace SMRT2 from LXRβ | 92.9% | Cc1cc(C)c(S(=O)(=O)N(Cc2ccc(-c3cccc(S(C)(=O)=O)c3)cc2)Cc2ccc(C(F)(F)F)o2)c(C)c1 [GSK2033] | no loss of cell viability | inverse agonist activity in cells | 93.4% | reducing lipogenic gene transcription below baseline | little or no ability to displace NCOR2 and SMRT2 corepressors from LXR; also recorded: does not stabilize a conformation that disrupts corepressor binding to LXRα | without effect on LXRα | – | – | –
2 | – | – | – | – | CCOC(=O)c1ccc(CN(Cc2ccc(-c3cccc(S(C)(=O)=O)c3)cc2)S(=O)(=O)c2c(C)cc(C)cc2C)o1 [SR9238] | no loss of cell viability | inverse agonist activity in cells | 69.2% | reducing lipogenic gene transcription below baseline | strong agonist responses | without effect on LXRα | antagonized the agonism of 24HC at LXRβ | 64.5% | 64.5%
